pIC50: −log10 of the molar value.
Assays:
CYP 1A2 = assay: CYP induction (mRNA and CYP activity); format: in vitro ADME, human
Text: (§1) The inhibition of cytochrome P450 (CYP) isoforms and a range of cellular transporters (except multidrug and toxin extrusion [MATE] proteins), as well as the induction of CYP isoforms were investigated using previously described methods.

CYP 3A4 = assay: CYP induction (mRNA and CYP activity); format: in vitro ADME, human
Text: as §1

CYP 2B6 = assay: CYP induction (mRNA and CYP activity); format: in vitro ADME, human
Text: as §1

BCRP = molecular target: T1, BCRP (Homo sapiens, UniProt Q9UNQ0); assay: Efflux transporter inhibition; format: in vitro ADME
T1 sequence (Q9UNQ0 1-655): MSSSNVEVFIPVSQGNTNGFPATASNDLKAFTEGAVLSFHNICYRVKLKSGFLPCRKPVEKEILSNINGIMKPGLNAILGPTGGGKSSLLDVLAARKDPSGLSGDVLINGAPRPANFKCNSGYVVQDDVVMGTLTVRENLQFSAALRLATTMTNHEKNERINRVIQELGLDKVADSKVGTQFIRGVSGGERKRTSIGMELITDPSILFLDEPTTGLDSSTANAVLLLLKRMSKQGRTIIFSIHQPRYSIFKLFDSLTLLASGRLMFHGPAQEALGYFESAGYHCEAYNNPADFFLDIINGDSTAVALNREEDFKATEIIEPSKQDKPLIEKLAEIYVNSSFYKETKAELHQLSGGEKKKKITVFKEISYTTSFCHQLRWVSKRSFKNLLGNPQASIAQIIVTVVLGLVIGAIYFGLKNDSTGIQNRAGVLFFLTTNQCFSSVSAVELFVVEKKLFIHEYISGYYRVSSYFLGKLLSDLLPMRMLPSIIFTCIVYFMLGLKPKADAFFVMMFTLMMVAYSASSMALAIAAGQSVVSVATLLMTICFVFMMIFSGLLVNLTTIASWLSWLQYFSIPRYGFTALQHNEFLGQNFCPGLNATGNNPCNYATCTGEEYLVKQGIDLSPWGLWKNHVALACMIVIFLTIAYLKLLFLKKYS
Text: as §1

P-gp = P-gp (Homo sapiens, UniProt P08183); assay: Efflux transporter inhibition; format: in vitro ADME
Chain of P-gp (P08183 whole entry): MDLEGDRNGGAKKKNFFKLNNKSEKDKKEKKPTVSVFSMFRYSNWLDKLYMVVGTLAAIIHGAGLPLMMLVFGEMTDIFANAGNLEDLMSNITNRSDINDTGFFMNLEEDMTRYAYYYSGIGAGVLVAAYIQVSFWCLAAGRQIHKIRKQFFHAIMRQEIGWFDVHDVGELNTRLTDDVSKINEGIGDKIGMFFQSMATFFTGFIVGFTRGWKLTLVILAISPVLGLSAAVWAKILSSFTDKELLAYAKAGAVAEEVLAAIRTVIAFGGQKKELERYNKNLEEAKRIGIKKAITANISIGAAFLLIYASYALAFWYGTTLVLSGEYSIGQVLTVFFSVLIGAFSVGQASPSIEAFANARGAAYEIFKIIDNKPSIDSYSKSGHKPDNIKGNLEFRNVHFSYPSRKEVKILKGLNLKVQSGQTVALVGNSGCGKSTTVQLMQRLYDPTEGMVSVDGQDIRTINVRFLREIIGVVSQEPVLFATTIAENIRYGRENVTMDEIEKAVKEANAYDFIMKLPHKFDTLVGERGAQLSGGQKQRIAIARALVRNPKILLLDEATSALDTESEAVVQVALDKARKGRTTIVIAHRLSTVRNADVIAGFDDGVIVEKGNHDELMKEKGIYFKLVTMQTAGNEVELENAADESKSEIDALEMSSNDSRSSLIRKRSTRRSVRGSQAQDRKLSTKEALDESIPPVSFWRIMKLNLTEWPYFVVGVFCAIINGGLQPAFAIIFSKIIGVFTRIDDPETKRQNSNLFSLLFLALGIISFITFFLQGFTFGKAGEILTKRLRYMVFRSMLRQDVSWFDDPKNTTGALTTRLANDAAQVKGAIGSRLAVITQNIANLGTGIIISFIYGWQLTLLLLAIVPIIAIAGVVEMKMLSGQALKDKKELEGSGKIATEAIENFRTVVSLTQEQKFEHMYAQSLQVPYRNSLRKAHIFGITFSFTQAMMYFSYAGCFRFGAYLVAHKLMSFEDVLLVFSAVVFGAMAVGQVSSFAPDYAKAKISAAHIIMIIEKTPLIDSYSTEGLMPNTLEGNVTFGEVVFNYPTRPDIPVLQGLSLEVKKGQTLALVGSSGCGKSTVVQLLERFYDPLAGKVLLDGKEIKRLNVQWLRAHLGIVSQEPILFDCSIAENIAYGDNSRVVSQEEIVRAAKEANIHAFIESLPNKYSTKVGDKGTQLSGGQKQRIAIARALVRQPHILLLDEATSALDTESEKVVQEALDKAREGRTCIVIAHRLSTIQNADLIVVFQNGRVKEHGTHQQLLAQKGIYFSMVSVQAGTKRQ
Text: as §1

MATE1 = molecular target: T2, MATE1 (Homo sapiens, UniProt Q96FL8); assay: MATE1 transport assay in overexpressing HEK293 cells; format: in vitro ADME; details: probe substrate metformin 20 µM
T2 construct: expressed in transfected cells; host or cells: HEK293, stably transfected
T2 sequence (Q96FL8 1-570): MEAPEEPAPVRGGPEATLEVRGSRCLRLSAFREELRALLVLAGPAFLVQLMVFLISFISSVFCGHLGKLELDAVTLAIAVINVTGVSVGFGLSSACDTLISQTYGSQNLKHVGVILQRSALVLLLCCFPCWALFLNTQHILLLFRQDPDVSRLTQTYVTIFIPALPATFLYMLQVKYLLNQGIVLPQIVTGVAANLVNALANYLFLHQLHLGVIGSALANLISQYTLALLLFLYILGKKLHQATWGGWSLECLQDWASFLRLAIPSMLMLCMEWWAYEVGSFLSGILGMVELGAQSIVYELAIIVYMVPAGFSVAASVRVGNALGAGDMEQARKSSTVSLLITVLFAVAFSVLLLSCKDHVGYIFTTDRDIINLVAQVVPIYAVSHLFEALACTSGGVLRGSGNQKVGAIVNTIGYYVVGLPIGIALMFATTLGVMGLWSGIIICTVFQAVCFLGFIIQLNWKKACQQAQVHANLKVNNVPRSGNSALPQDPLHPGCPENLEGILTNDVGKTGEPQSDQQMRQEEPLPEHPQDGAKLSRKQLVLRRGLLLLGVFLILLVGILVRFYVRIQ
Experimental: as §1
Supplementary Material Current Drug Metabolism, 2023, Vol. 24, No. 8 iii […]
-, not determined; BCRP, breast cancer resistance protein; P-gp, P-glycoprotein; MATE, multidrug and toxin extrusion. aThe highest test concentration of 20 µM was not valid in this assay for technical reasons.
OAT, organic anion transporter; OATP, organic anion transporting polypeptide; OCT, organic cation transporters.
After thawing from frozen storage, aliquots of approximately 3 x 10^6 cells of human embryonic kidney (HEK293) cell line stable overex-pressing MATE1 or MATE2K were transferred to cell culture dishes containing 10 mL of DMEM-medium (supplemented with 10% FBS, 1% penicillin [10.000 U/mL]/streptomycin [10 mg/mL] and hygromycin B [150 µg/mL]) at 37°C. Transporter-transfected and vector-transfected HEK cells were grown on cell culture dishes at 37°C in a humidified 5% CO 2 atmosphere. All cell lines were confirmed free from mycoplasma by routine testing with conventional PCR. Cell cultures were split when they had grown to confluency. For passaging, cells were washed with PBS, exposed to trypsin-EDTA for 5 min at room temperature, collected by centrifugation, resuspended in culture medium and […]
MATE1 and MATE2K Transport Assays
Transporter-transfected and vector-transfected cells were prepared for use in uptake assays by harvesting and plating into 24-well-plates pre-coated with poly-D-lysine hydrobromide at a density of 2 x 10^5 cells/well and then cultured for 3 days in DMEM growth medium (high glucose, 10% FBS, 1% penicillin/streptomycin). For uptake assays, the growth medium was aspirated and each plate well was rinsed twice with HBSS supplemented with 20 mM HEPES, pH 7.4. The intracellular environment was acidified by preincubation in 30 mM NH4Cl in buffer pH 7.4 at 37°C for 30 min. […]

[1] = test system: human CYP enzymes (all isoforms tested); assay: CYP inhibition, all isoforms tested (summary); format: in vitro ADME; details: reversible and irreversible
Text: as §1

[2] = probe substrate digoxin, for M-4 the highest test concentration of 20 µM was not valid

Row | Structure (SMILES) | concentration up to which no induction (mRNA and CYP activity) (CYP 1A2) | concentration up to which no induction (mRNA and CYP activity) (CYP 3A4) | concentration up to which no induction (mRNA and CYP activity) (CYP 2B6) | pIC50 (BCRP; probe substrate fluvastatin) | pIC50 (BCRP; probe substrate topotecan) | pIC50 (P-gp; [2]) | pIC50 (P-gp; probe substrate dipyridamole) | pIC50 (MATE1) | pIC50 [1]
1 | CC1CS(=O)(=O)CCN1n1cc(SCC(N)C(=O)O)ccc1=O (centres unmarked) [M-4] | up to 80000 µg/L | up to 80000 µg/L | up to 80000 µg/L | < 4.70 | < 4.70 | < 5.30 | < 4.70 | < 5.30 | < 4.70
2 | CC1CS(=O)(=O)CCN1N (centres unmarked) [M-6] | up to 90000 µg/L | up to 90000 µg/L | up to 90000 µg/L | < 3.70 | < 3.70 | < 3.70 | < 3.70 | < 4.52 | < 4.00
3 | CC1CS(=O)(=O)CCN1/N=C/c1ccc([N+](=O)[O-])o1 (centres unmarked) [Nifurtimox, (E)-N-(3-methyl-1,1-dioxo-1,4-thiazinan-4-yl)-1-(5-nitrofuran-2-yl) methanimine, reference compound] | up to 30000 µg/L | up to 30000 µg/L | up to 30000 µg/L | – | < 4.00 | < 4.00 | < 4.00 | < 4.70 | < 4.30
